Source: ChEMBL document CHEMBL5053493, “Design and synthesis of novel orally selective and type II pan-TRK inhibitors to overcome mutations by property-driven optimization” (Eur J Med Chem, 2021)

Columns and labels:
[1] = Inhibition of TRKC G623R mutant (unknown origin) in presence of [gamma-33P]ATP by hotspot kinase assay; set-up: species or system Homo sapiens
[2] = Inhibition of TRKC L686M mutant (unknown origin) in presence of [gamma-33P]ATP by hotspot kinase assay; set-up: species or system Homo sapiens
[3] = Inhibition of TRKA F589L mutant (unknown origin) in presence of [gamma-33P]ATP by hotspot kinase assay; set-up: species or system Homo sapiens
[4] = Inhibition of TRKA L657M mutant (unknown origin) in presence of [gamma-33P]ATP by hotspot kinase assay; set-up: species or system Homo sapiens
[5] = Inhibition of TRKA G595R/A608D double mutant (unknown origin) bin presence of [gamma-33P]ATP by hotspot kinase assay; set-up: species or system Homo sapiens
[6] = Inhibition of TRKA […]/G667C double mutant (unknown origin) in presence of [gamma-33P]ATP by hotspot kinase assay; set-up: species or system Homo sapiens
[7] = Inhibition of TRKC G696A mutant (unknown origin) in presence of [gamma-33P]ATP by hotspot kinase assay; set-up: species or system Homo sapiens
[8] = Inhibition of TRKA G595R/L657M double mutant(unknown origin) in presence of [gamma-33P]ATP by hotspot kinase assay; set-up: species or system Homo sapiens
[9] = tested on: KM12; experiment: Antiproliferative activity against human KM12 cells assessed as reduction in cell viability measured after 72 hrs by MTS assay
[10] = molecular target: BDNF/NT-3 growth factors receptor (Homo sapiens, UniProt Q16620); experiment: Inhibition of TRKB (unknown origin)
[11] = molecular target: NT-3 growth factor receptor (Homo sapiens, UniProt Q16288); experiment: Inhibition of TRKC (unknown origin)
[12] = molecular target: T1, Aurora kinase A (Homo sapiens, UniProt O14965); experiment: biochemical
T1 sequence (O14965 whole entry): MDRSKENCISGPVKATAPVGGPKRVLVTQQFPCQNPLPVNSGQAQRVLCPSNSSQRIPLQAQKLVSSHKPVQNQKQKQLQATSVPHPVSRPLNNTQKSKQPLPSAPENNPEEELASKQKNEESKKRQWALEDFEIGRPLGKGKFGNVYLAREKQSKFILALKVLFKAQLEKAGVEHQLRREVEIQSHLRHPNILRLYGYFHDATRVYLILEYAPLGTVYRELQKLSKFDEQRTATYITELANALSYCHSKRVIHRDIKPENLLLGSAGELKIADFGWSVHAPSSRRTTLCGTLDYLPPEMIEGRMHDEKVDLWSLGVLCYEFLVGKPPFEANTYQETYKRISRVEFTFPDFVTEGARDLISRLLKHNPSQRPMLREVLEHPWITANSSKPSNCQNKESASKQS
Description: Inhibition of GST-tagged AURA Ser123 to 401 residues) (unknown origin) expressed in Sf9 insect cells using tetra-LLRASLG peptide as substrate incubated for 90 mins in presence of ATP

[13] = molecular target: T2, High affinity nerve growth factor receptor (Homo sapiens, UniProt P04629)
[14] = molecular target: Aurora kinase B (Homo sapiens, UniProt Q96GD4); experiment: Inhibition of recombinant full length His-tagged human AURB expressed in baculovirus expression system using tetra-LLRASLG peptide as substrate incubated for 180 mins in presence of ATP; set-up: species or system Sf9
[15] = molecular target: T2, High affinity nerve growth factor receptor; remark: listed apart in the source
Description: Inhibition of wildtype human TRKA using poly (Glu,Tyr) 4:1 as substrate in presence of [gamma-33P]ATP by hotspot kinase assay

T2 sequence (P04629 whole entry): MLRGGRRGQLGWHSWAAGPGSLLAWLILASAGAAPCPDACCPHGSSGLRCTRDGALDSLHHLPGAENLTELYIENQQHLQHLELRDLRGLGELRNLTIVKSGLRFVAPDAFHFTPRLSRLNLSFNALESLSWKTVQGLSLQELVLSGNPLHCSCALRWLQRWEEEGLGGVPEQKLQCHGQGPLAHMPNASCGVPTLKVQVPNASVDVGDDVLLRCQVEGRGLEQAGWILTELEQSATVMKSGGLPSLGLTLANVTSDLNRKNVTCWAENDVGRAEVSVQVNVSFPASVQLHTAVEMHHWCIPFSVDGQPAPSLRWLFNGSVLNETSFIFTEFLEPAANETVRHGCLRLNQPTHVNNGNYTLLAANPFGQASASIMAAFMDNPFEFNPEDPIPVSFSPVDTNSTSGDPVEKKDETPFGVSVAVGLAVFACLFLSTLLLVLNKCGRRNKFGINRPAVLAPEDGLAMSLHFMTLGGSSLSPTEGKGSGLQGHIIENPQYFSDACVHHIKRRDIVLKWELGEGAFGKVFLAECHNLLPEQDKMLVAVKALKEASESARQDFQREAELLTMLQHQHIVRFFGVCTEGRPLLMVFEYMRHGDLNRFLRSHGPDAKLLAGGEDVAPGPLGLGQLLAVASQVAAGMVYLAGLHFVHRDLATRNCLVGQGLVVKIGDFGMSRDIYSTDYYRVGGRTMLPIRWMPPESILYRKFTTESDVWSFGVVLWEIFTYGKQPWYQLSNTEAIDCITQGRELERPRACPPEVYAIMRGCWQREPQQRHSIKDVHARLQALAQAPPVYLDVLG
Aurora kinase B, sequence (Q96GD4 whole entry): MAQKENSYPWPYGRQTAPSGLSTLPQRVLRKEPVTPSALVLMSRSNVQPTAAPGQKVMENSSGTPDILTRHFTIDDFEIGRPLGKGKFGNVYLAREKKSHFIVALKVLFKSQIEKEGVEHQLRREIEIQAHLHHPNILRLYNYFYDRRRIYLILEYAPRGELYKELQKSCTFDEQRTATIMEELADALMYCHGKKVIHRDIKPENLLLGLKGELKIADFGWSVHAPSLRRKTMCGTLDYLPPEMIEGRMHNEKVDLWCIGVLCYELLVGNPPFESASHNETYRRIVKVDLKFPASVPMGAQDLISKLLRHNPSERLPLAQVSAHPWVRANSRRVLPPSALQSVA
BDNF/NT-3 growth factors receptor, sequence (Q16620 whole entry): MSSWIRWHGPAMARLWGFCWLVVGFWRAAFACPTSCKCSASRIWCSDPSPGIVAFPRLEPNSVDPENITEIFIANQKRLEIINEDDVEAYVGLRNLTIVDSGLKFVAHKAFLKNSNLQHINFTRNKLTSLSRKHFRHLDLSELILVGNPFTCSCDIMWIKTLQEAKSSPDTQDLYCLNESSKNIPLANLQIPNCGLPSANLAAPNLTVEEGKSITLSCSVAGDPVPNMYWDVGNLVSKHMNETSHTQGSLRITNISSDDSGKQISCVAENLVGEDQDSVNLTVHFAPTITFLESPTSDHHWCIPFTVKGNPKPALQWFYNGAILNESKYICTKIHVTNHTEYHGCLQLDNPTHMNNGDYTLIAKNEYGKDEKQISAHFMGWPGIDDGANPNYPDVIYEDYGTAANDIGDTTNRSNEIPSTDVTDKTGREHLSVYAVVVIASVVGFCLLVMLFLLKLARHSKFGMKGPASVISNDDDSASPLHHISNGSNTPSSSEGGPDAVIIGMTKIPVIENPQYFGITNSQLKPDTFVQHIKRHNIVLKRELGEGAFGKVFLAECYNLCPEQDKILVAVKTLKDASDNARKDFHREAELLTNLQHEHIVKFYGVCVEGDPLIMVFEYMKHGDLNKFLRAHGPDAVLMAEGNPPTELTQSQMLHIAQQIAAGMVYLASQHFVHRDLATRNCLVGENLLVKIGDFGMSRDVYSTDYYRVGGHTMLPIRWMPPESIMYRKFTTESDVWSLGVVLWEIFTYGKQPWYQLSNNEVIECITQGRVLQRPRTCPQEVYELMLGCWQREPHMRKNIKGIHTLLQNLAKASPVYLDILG
NT-3 growth factor receptor, sequence (Q16288 whole entry): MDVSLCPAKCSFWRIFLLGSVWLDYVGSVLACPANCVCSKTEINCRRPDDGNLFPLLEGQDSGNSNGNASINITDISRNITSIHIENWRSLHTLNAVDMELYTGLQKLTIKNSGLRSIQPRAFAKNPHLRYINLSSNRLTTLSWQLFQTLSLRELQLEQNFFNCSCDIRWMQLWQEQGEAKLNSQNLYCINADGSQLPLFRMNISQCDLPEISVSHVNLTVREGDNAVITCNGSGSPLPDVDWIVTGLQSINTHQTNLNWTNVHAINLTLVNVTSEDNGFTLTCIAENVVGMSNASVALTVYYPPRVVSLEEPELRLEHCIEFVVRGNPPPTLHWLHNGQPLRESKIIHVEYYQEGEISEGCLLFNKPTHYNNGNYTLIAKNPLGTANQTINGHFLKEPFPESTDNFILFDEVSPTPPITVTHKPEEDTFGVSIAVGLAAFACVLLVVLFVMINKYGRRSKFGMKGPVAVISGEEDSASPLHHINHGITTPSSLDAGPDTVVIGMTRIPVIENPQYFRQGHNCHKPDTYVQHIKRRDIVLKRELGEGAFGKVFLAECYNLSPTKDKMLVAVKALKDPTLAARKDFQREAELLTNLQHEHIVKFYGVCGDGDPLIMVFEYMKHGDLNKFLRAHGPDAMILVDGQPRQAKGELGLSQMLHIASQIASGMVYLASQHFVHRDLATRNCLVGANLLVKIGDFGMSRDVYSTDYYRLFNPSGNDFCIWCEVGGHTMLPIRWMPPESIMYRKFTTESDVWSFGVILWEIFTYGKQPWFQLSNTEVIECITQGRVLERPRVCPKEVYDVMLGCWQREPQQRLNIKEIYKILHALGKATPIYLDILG

SMILES: O=C(Nc1cnn2ccc(N3CCC[C@H]3c3cc(F)ccc3F)nc12)N1CC[C@@H](O)C1
- IC50 [1]: 209 nM
- IC50 [2]: 150 nM
- IC50 [3]: 52.1 nM
- IC50 [4]: 20.7 nM
- IC50 [5]: 80.2 nM
- IC50 [6]: > 10000 nM
- IC50 [7]: 3.28 nM
- IC50 [8]: 2510 nM

SMILES: CN(C)CCCOc1ccc2c(NCCc3cnc(NC(=O)Nc4cccc(Cl)c4)s3)ncnc2c1
- IC50 ([9]; Homo sapiens, KM12, 72 h): > 10000 nM
- IC50 [10]: 1.78 nM
- IC50 [11]: 0.21 nM
- IC50 [12]: 5.6 nM
- IC50 [13]: 36.8 nM

SMILES: CCOc1cc2ncnc(Nc3ccc(NC(=O)Nc4ccccc4)cc3)c2cc1F
- IC50 ([9]; Homo sapiens, KM12, 72 h): 2020 nM
- IC50 [12]: 338 nM

SMILES: CCOc1cc2c(NCCc3ccc(NC(=O)Nc4ccccc4)cc3)ncnc2cc1F
- IC50 ([9]; km12): 324 nM
- IC50 [12]: 65.6 nM

SMILES: CCOc1cc2c(NCCc3ccc(NC(=O)Nc4cccc(Cl)c4)cc3)ncnc2cc1F
- IC50 [12]: 108 nM

SMILES: CCOc1cc2ncnc(Nc3ccc(NC(=O)Nc4cccc(Cl)c4)cc3)c2cc1F
- IC50 [12]: 156 nM

SMILES: CCOc1cc2ncnc(NCCc3ccc(NC(=O)Nc4cc(Cl)ccc4OC)cc3)c2cc1F
- IC50 [14]: 512 nM
- IC50 [12]: 352 nM

SMILES: COc1cc2ncnc(NCCc3ccc(NC(=O)Nc4ccccc4)cc3)c2cc1OC
- IC50 [12]: 23 nM

SMILES: CCOc1cc2ncnc(NCCc3ccc(NC(=O)Nc4cccc(F)c4)cc3)c2cc1F
- IC50 [12]: 6 nM

SMILES: O=C(Nc1ccccc1)Nc1ccc(CCNc2ncnc3cc(F)c(F)cc23)cc1
- IC50 ([9]; Homo sapiens, KM12, 72 h): 1520 nM

SMILES: CCOc1cc2ncnc(NCCc3ccc(NC(=O)Nc4cccc(C(F)(F)F)c4)cc3)c2cc1F
- IC50 [12]: 63.2 nM

SMILES: CCOc1cc2ncnc(NCc3ccc(NC(=O)Nc4cccc(Cl)c4)cc3)c2cc1F
- IC50 ([9]; Homo sapiens, KM12, 72 h): 1270 nM
- IC50 [12]: 2 nM

SMILES: CCOc1cc2ncnc(NCCc3ccc(NC(=O)Nc4ccccc4)cc3)c2cc1F
- IC50 ([9]; km12): 324 nM
- IC50 [12]: 29.2 nM
- IC50 [13]: > 9000 nM

SMILES: O=C(Nc1ccccc1)Nc1ccc(CCNc2ncnc3ccccc23)cc1
- IC50 [12]: 140 nM

SMILES: CCOc1cc2ncnc(NCCc3ccc(NC(=O)Nc4cccc(Cl)c4)cc3)c2cc1F
- IC50 [12]: 26.9 nM

SMILES: CCOc1cc2ncnc(NCCc3ccc(NC(=O)Nc4cc(C(F)(F)F)ccc4OC)cc3)c2cc1F
- IC50 [14]: 548 nM
- IC50 [12]: 454 nM

SMILES: CCOc1cc2ncnc(NCCc3ccc(NC(=O)Nc4ccc(Cl)c(C(F)(F)F)c4)cc3)c2cc1F
- IC50 [12]: 349 nM

SMILES: CCOc1cc2ncnc(NCCc3ccc(NC(=O)Nc4ccc(F)c(Cl)c4)cc3)c2cc1F
- IC50 [12]: 44 nM

SMILES: CCOc1cc2ncnc(NCc3ccc(NC(=O)Nc4ccccc4)cc3)c2cc1F
- IC50 ([9]; Homo sapiens, KM12, 72 h): 2400 nM
- IC50 [12]: 8 nM

SMILES: COc1cc2nccc(Oc3ccc(NC(=O)C4(C(=O)Nc5ccc(F)cc5)CC4)cc3)c2cc1OC [CABOZANTINIB]
- IC50 [15]: 72.3 nM

SMILES: COc1cc2c(Oc3ccc(NC(=O)C4(C(=O)Nc5ccc(F)cc5)CC4)cc3F)ccnc2cc1OCCCN1CCOCC1 [FORETINIB]
- IC50 [15]: 2.97 nM
